{"source": "patent US9155759B2", "about": "“Heterochain aliphatic poly-N-oxide copolymers and vaccinating agents and drugs based thereon” (priority 2010, dated 2015)", "key": {"[1]": {"test": "Antidotal properties at acute CuSo4 poisoning", "assay_type": "in vivo", "description": "The investigation was done in vivo at an acute CuSo4 poisoning. The preparations are administered to 7 groups of animals of which a normal saline solution is administered to the animals of the first group, CuSo4 alone in the doses fatal for animals (mg/kg): 12.5; 25.0; and 50.0 to the animals of groups 2÷4, and the similar CuSo4 doses in combination with the similar doses of CP—NO-3-1 are administered to the animals of groups 5÷7.\nThe results of investigations presented in table 4 testify to a pronounced antidotal effect of CP—NO."}, "[2]": {"system": "erythrocytes", "test": "Quartz (SiO2) erythrocyte hemolysis model", "assay_type": "cell-based, Human", "details": "for Protection from hemolysis / Hemolysis: SiO2 3 mg; for Hemolysis: 1 hour, 37° C.", "description": "The investigation was done on a model of quartz (SiO2) erythrocyte hemolysis using the international standard of quartz dust DQ-12 having a dispersion degree of less than 3 μm according to the A. David method (1976). Human blood was taken with heparin, erythrocytes were thrice washed in a 10-fold volume of a water-white Henx solution followed by centrifuging at 3000 rpm for 10 min. An erythrocyte suspension was resuspended to a 4% concentration ([…]). All investigations were done in 3÷5 parallel assays. The samples of SiO2 and erythrocytes were taken under continuous agitation on a magnetic agitator.\n1 ml of a 4% erythrocyte suspension was mixed with 1 ml of the investigated preparation adding 1 ml of 0.3% (3 mg/ml) of a SiO2 suspension and incubated for 1 hour at a temperature of 37° C. carefully shaking the samples every 5 minutes. After incubation all samples were added with 7 ml of a buffer, it was centrifuged and the supernatant was photometered on SF-26 at 540 nm. The results of hemolysis were expressed in percents taking as 100% the content of hemoglobin in the samples of 1 ml of a 4% erythrocyte suspension with 9 ml of distilled water. The protective effect of the investigated preparations was calculated according to the formula and expressed in percents: […]\nE540 K SiO2 is extinction of the control samples—a “water-silicon-erythrocytes” test tube.\nA property of CP—NO to protect erythrocytes from hemolysis was compared to high molecular plasma-substituting solutions of polyvinylpyrrolidone (hemodez), dextran (polyglucin) and albumin. As a buffer, a water-white Henx solution was used."}}, "note": "Marks after values point to notes of the source that are not given here."}
{"compound": "O=S(=O)([O-])[O-].[Cu+2]", "note": "[CuSO4]", "values": [{"measurement": "% of animal death at days 1-2", "setting": "[1]; CuSO4 12.5 mg/kg alone", "result": 100, "unit": "%"}, {"measurement": "Animal survivability at day 30", "setting": "[1]; CuSO4 12.5 mg/kg alone", "result": 0, "unit": "%"}, {"measurement": "% of animal death at days 1-2", "setting": "[1]; CuSO4 25.0 mg/kg alone", "result": 100, "unit": "%"}, {"measurement": "Animal survivability at day 30", "setting": "[1]; CuSO4 25.0 mg/kg alone", "result": 0, "unit": "%"}, {"measurement": "% of animal death at days 1-2", "setting": "[1]; CuSO4 50.0 mg/kg alone", "result": 100, "unit": "%"}, {"measurement": "Animal survivability at day 30", "setting": "[1]; CuSO4 50.0 mg/kg alone", "result": 0, "unit": "%"}]}
{"compound": "Albumin", "values": [{"measurement": "protective properties against hemolysis (in words)", "setting": "[2]; comparison detoxicants", "result": "a pronounced effect is achieved only in high doses"}, {"measurement": "Protection from hemolysis", "setting": "[2]; dose 100 μg/ml", "result": 18.0, "unit": "%"}, {"measurement": "Hemolysis", "setting": "[2]; dose 100 μg/ml", "result": 82.0, "unit": "%"}, {"measurement": "Protection from hemolysis", "setting": "[2]; dose 1000 μg/ml", "result": "86.5* %"}, {"measurement": "Hemolysis", "setting": "[2]; dose 1000 μg/ml", "result": "13.5* %"}]}
